{"source": "ChEMBL document CHEMBL4007467", "about": "“Effects of 6-paradol, an unsaturated ketone from gingers, on cytochrome P450-mediated drug metabolism” (Bioorg Med Chem Lett, 2017)", "assay_type_in_all_cases": "ADME", "key": {"[1]": {"molecular_target": "T1, CYP2A6 (Homo sapiens, UniProt P11509)", "T1 sequence (P11509 whole entry)": "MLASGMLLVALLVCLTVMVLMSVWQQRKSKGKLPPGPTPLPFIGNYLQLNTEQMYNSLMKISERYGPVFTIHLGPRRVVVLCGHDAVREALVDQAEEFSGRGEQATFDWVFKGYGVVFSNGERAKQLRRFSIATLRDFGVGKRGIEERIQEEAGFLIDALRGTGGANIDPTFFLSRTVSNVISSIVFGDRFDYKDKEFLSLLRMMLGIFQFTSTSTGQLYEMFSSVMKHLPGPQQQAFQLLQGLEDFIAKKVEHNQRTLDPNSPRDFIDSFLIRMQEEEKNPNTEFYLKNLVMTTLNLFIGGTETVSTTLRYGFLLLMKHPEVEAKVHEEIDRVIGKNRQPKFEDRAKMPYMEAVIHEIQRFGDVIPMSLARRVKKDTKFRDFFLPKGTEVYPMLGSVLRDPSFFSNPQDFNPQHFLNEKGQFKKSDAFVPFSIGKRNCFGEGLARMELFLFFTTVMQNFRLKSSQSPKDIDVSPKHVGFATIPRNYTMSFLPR", "experiment": "Inhibition of CYP2A6 in human liver microsomes assessed as enzyme-mediated metabolite formation at 30 uM using coumarin as substrate incubated for 5 mins followed by NADPH addition measured after 30 mins by LC-MS/MS analysis relative to control", "design": "scale not given: the % may be the effect or the level left", "settings": "probe coumarin, read-out: Activity"}, "[2]": {"molecular_target": "T2, CYP2B6 (Homo sapiens, UniProt P20813)", "T2 sequence (P20813 whole entry)": "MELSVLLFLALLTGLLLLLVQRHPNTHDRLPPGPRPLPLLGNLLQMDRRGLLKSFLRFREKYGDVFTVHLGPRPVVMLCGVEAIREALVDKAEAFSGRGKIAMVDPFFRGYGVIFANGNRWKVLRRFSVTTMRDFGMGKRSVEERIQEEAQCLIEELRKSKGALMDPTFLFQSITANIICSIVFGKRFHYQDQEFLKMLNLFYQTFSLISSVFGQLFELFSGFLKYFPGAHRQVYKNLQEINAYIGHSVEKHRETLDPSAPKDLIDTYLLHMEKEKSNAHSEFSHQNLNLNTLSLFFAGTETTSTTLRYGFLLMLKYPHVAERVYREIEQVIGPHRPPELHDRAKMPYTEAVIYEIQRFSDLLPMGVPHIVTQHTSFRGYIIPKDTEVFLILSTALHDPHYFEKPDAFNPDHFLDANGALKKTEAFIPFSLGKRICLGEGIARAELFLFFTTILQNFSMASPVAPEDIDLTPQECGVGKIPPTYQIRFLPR", "experiment": "Inhibition of CYP2B6 in human liver microsomes assessed as enzyme-mediated metabolite formation at 0.3 uM using bupropion as substrate incubated for 5 mins followed by NADPH addition measured after 30 mins by LC-MS/MS analysis relative to control", "design": "scale not given: the % may be the effect or the level left", "settings": "probe bupropion, read-out: Activity"}, "[3]": {"molecular_target": "T3, CYP3A4 (Homo sapiens, UniProt P08684)", "T3 sequence (P08684 whole entry)": "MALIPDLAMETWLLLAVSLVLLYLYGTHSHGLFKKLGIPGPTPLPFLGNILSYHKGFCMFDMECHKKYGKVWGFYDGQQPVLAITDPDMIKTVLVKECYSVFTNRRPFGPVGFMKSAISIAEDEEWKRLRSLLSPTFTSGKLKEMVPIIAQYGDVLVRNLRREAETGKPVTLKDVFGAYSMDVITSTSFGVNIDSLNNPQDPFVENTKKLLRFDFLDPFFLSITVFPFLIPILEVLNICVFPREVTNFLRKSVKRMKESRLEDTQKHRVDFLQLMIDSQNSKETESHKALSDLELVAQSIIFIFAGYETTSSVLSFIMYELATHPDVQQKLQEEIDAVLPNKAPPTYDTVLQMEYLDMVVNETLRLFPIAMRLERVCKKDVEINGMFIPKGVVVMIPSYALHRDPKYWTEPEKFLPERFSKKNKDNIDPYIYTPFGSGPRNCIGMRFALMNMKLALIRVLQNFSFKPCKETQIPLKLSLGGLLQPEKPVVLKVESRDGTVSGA", "experiment": "Inhibition of CYP3A4 in human liver microsomes assessed as enzyme-mediated metabolite formation at 1 uM using testosterone as substrate incubated for 5 mins followed by NADPH addition measured after 30 mins by LC-MS/MS analysis relative to control", "design": "scale not given: the % may be the effect or the level left", "settings": "probe testosterone, read-out: Activity"}, "[4]": {"molecular_target": "T3, CYP3A4", "experiment": "Inhibition of CYP3A4 in human liver microsomes assessed as enzyme-mediated metabolite formation at 30 uM using testosterone as substrate incubated for 5 mins followed by NADPH addition measured after 30 mins by LC-MS/MS analysis relative to control", "design": "scale not given: the % may be the effect or the level left", "settings": "probe testosterone, read-out: Activity"}, "[5]": {"molecular_target": "T4, CYP1A2 (Homo sapiens, UniProt P05177)", "T4 sequence (P05177 whole entry)": "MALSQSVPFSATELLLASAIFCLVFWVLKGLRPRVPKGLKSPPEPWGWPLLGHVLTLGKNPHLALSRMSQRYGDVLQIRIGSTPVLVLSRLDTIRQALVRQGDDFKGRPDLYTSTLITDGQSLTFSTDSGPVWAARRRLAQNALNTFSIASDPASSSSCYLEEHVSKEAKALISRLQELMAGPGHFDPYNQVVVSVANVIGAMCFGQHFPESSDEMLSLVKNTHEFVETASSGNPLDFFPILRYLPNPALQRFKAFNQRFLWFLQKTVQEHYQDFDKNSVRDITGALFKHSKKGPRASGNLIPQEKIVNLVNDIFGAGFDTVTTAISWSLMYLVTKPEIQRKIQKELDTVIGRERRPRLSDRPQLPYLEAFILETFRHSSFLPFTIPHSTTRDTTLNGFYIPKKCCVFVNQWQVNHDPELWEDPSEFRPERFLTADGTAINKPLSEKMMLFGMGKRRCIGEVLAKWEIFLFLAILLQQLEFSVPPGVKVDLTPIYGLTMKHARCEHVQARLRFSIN", "experiment": "Inhibition of CYP1A2 in human liver microsomes assessed as enzyme-mediated metabolite formation at 0.3 uM using phenacetin as substrate preincubated for 20 mins followed by substrate addition measured after 30 mins in presence of NADPH by LC-MS/MS analysis relative to control", "design": "scale not given: the % may be the effect or the level left", "settings": "probe phenacetin, read-out: Activity"}, "[6]": {"molecular_target": "T4, CYP1A2", "experiment": "Inhibition of CYP1A2 in human liver microsomes assessed as enzyme-mediated metabolite formation at 1 uM using phenacetin as substrate preincubated for 20 mins followed by substrate addition measured after 30 mins in presence of NADPH by LC-MS/MS analysis relative to control", "design": "scale not given: the % may be the effect or the level left", "settings": "probe phenacetin, read-out: Activity"}, "[7]": {"molecular_target": "T5, Cytochrome P450 2C8 (Homo sapiens, UniProt P10632)", "T5 sequence (P10632 whole entry)": "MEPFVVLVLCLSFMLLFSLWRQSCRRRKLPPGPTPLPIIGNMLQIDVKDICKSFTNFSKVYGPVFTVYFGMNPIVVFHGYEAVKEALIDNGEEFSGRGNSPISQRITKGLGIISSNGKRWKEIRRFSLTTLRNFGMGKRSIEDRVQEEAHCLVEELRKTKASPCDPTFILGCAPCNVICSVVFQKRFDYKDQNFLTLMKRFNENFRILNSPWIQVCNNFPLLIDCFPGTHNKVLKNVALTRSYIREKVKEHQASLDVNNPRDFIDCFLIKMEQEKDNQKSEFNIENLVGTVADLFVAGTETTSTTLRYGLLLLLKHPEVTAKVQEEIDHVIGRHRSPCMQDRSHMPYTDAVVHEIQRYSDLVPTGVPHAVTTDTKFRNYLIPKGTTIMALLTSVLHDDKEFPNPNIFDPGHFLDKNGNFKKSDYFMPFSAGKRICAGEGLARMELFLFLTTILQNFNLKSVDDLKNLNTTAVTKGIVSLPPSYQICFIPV", "experiment": "Inhibition of CYP2C8 in human liver microsomes using paclitaxel as substrate preincubated for 20 mins followed by substrate addition measured after 30 mins in presence of NADPH by LC-MS/MS analysis"}, "[8]": {"molecular_target": "CYP2C19 (Homo sapiens, UniProt P33261)", "sequence (P33261 whole entry)": "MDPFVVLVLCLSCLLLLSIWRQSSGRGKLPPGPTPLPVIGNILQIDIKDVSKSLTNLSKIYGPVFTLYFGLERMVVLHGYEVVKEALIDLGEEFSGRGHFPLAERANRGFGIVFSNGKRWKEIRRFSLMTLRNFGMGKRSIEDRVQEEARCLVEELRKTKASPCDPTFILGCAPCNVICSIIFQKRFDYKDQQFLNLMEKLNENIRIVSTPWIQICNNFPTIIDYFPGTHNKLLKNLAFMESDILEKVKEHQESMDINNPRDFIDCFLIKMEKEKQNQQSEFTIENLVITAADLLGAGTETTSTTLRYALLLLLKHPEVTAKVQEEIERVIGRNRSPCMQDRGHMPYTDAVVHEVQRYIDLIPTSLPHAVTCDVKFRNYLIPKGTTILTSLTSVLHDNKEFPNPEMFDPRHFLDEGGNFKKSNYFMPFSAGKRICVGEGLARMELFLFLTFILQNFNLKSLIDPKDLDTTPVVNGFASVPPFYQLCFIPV", "experiment": "Inhibition of CYP2C19 in human liver microsomes assessed as enzyme-mediated metabolite formation at 30 uM using (S)-mephenytoin as substrate preincubated for 20 mins followed by substrate addition measured after 30 mins in presence of NADPH by LC-MS/MS analysis relative to control", "design": "scale not given: the % may be the effect or the level left", "settings": "probe (S)-mephenytoin, read-out: Activity"}, "[9]": {"molecular_target": "T3, CYP3A4", "experiment": "Inhibition of CYP3A4 in human liver microsomes assessed as enzyme-mediated metabolite formation at 0.1 uM using midazolam as substrate preincubated for 20 mins followed by substrate addition measured after 30 mins in presence of NADPH by LC-MS/MS analysis relative to control", "design": "scale not given: the % may be the effect or the level left", "settings": "probe midazolam, read-out: Activity"}}, "data": [{"smiles": "CCCCCCCC(=O)CCc1ccc(O)c(OC)c1", "values": [{"measurement": "activity at 0.5 h, 30 µM", "setting": "[1]", "result": 77.4, "unit": "%"}, {"measurement": "activity at 0.5 h, 0.3 µM", "setting": "[2]", "result": 68.8, "unit": "%"}, {"measurement": "activity at 0.5 h, 1 µM", "setting": "[3]", "result": 65.6, "unit": "%"}, {"measurement": "activity at 0.5 h, 30 µM", "setting": "[4]", "result": 48.6, "unit": "%"}, {"measurement": "activity at 0.5 h, 0.3 µM", "setting": "[5]", "result": 96.4, "unit": "%"}, {"measurement": "activity at 0.5 h, 1 µM", "setting": "[6]", "result": 82.1, "unit": "%"}, {"measurement": "IC50", "setting": "[7]", "result": 8.3, "unit": "µM"}, {"measurement": "activity at 0.5 h, 30 µM", "setting": "[8]", "result": 36.8, "unit": "%"}, {"measurement": "activity at 0.5 h, 0.1 µM", "setting": "[9]", "result": 96.3, "unit": "%"}]}]}
